Measured values as given in publication PMC12703733, “Probing Guanidino Pendant or Bridged Groups in Cyclic Antimicrobial Peptides Derived from Temporin L: A Strategy to Improve Efficacy against Gram-Negative Bacteria” (Journal of Medicinal Chemistry, 2025).
Converted amounts (≈) assume the structure as drawn. Read-outs that look alike come from different tables or passages of the source. Bridge positions count the residues as written; N and C are the ends. Square brackets hold non-standard residues; d marks the D form. Peptide text beside a SMILES is read from it. Phe(4-guanidino) = N=C(N)Nc1ccc(C[C@H](N)C(=O)O)cc1

Experiments:
[1] = assay type: cell-based; details: Cell viability (%)
Experimental: For the evaluation of peptides’ cytotoxicity, the human immortalized keratinocytes (HaCaT cells), purchased from AddexBio (San Diego, CA, USA), and BEAS-2B were used. HaCaT cells were cultured in Dulbecco’s modified Eagle’s medium supplemented with 4 mM glutamine (DMEM), 10% heat-inactivated fetal bovine serum (FBS), and 0.1 mg/mL of penicillin and streptomycin, at 37 °C and 5% CO2. BEAS-2B cells were cultured in RPMI, supplemented with 2 mM glutamine (DMEM), 10% heat-inactivated fetal bovine serum (FBS), 1 mM sodium pyruvate, and 0.1 mg/mL of penicillin and streptomycin, at 37 °C and 5% CO2. Cytotoxicity was tested in vitro using a colorimetric assay that relies on the intracellular reduction of the yellow 3-(4,5-dimethylthiazol-2-yl)-2,5-diphenyltetrazolium bromide salt (MTT) by mitochondrial dehydrogenases of metabolically active cells in formazan crystals (purple). About 4 × 10^4 HaCaT and BEAS-2B cells, suspended in DMEM supplemented with 2% FBS, were plated in triplicate wells of a 96-well microtiter plate. The plate was incubated overnight at 37 °C and 5% CO2. Then, the cells were treated with different concentrations of the peptide (from 100 to 3.12 μM) in a fresh serum-free medium for 2 h and for a longer time (24 h). Following peptide treatment, the medium was removed, and MTT (0.5 mg/mL) solution in Hank’s buffer (136 mM NaCl, 4.2 mM Na2HPO4, 4.4 mM KH2PO4, 5.4 mM KCl, 4.1 mM NaHCO3, pH 7.2, supplemented with 20 mM D-glucose) was added to each well of the plate, that was then incubated for 4 h at 37 °C and 5% CO2. The purple formazan crystals were dissolved using acidified 2-propanol and a microplate reader (Infinite M200; Tecan, Salzburg, Austria) was used to measure the absorbance of each well at 570 nm. The percentage of cell viability was calculated compared to the control, which consisted of cells without any peptide treatment (corresponding to 100% viability) and all data represent the mean of three independent experiments ± SEM.

[2] = system: human keratinocytes (HaCaT cells); assay type: cell-based; details: human, 24 h
Procedure, shortened: (§1)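 Cells were plated at about 4 × 10^4/well in 2% FBS, then exposed to peptide at 100–3.12 μM in serum-free medium for 2 h or 24 h. Viability was measured by MTT reduction (0.5 mg/mL, 4 h, absorbance 570 nm) relative to untreated cells, as the mean ± SEM of three experiments.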

[3] = assay type: cell-based, human; details: human
Procedure, shortened: as §1

S. aureus ATCC 25923 [4] = assay type: cell-based
Experimental: The ability of peptides to alter the bacterial membrane permeability of planktonic cells of S. aureus ATCC 25923 and P. aeruginosa ATCC 27853 was determined by the Sytox Green assay. Approximately 1 × 10^6 cells in 100 μL of PBS were combined with 1 μM Sytox Green in the dark for 5 min. The fluorescence intensity was monitored using a microplate reader (Infinite M200, Tecan), with excitation and emission at λ = 485 and 535 nm, respectively. Peptides were added (time = 0) at three different concentrations (i.e., 3.12, 6.25, and 12.5 μM). Increase in the fluorescence intensity is due to the binding of the dye to intracellular nucleic acids. Controls consisted of cells that were not exposed to the peptides. The values correspond to one representative experiment out of three independent experiments.

B. megaterium BM11 = test: microbe, parasite or virus in culture; assay type: cell-based; details: BM11
Procedure, shortened: (§2)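 MH broth, inoculum 2 × 10^6 cell/mL from mid-log culture; 37 °C incubation; MIC = three identical readings, four independent expts.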

S. agalactiae ATCC 27591 = test: microbe, parasite or virus in culture; assay type: cell-based; details: ATCC 27591
Procedure, shortened: as §2

S. aureus ATCC 25923 [5] = test: microbe, parasite or virus in culture; assay type: cell-based; details: ATCC 25923
Procedure, shortened: as §2

[6] = system: S. epidermidis ATCC 12228; test: microbe, parasite or virus in culture; assay type: cell-based; details: ATCC 12228
Procedure, shortened: as §2

A. baumannii ATCC 19606 = test: microbe, parasite or virus in culture; assay type: cell-based; details: ATCC 19606
Procedure, shortened: as §2

P. aeruginosa ATCC 27853 = test: microbe, parasite or virus in culture; assay type: cell-based; details: ATCC 27853
Procedure, shortened: as §2

E. faecalis ATCC 29212 = test: microbe, parasite or virus in culture; assay type: cell-based; details: ATCC 29212
Procedure, shortened: as §2

E. coli ATCC 25922 = test: microbe, parasite or virus in culture; assay type: cell-based; details: ATCC 25922
Procedure, shortened: as §2

E. coli D21 = test: microbe, parasite or virus in culture; assay type: cell-based; details: D21
Procedure, shortened: as §2

circular dichroism = details: water; pH ns; 25 °C; 150 uM
in vitro = in vitro ADME; details: isolated enzyme chymotrypsin, pH 7.8
Experimental: Peptide stability was evaluated by modifying previously described procedures. , The assays were performed in human serum and in the presence of proteolytic enzymes such as trypsin and chymotrypsin. For human serum stability, 2 mM peptide stock solutions were prepared in water and mixed with human serum (from male AB plasma, USA origin, sterile-filtered, Merck/Sigma-Aldrich, USA) to obtain a final concentration of 200 μM [human plasma/stock solution (9:1, v/v)]. The mixtures were incubated at 37 ± 1 °C, and 50 μL aliquots were taken at predetermined time intervals (0, 1, 2, 4, 8, and 24 h). Protease activity was quenched by adding 100 μL of acetonitrile (MeCN). The resulting cloudy suspensions were cooled to 4 °C for 30 min and centrifugated at 12,000 rpm for 10 min to remove the serum proteins. Then, the supernatants were analyzed by analytical HPLC (Shimadzu Nexera Liquid Chromatograph LC-30AD) which was equipped with a Phenomenex Kinetex reversed-phase column (C18, 5 μm, 100 Å, 150 mm × 4.6 mm) with a flow rate of 1 mL/min using a gradient of MeCN (0.1% TFA) in water (0.1% TFA), from 10 to 70% over 15 min, and UV detection at 220 nm. For enzyme stability, each peptide peptide (200 μM) was incubated with trypsin (0.5 μM) in PBS 1× (pH 7.2) or with chymotrypsin (0.005 μM) in Tris–HCl (100 mM, pH 7.8). Samples (50 μL) were collected at 0, 1, 2, 4, and 24 h, quenched with 0.5% TFA in water, and analyzed by HPLC under chromatographic conditions as described above. All experiments were conducted in triplicate. The percentage of intact peptides at each time point was determined by integrating the corresponding HPLC peak areas.

MIC (B. megaterium BM11): 0.78 µM (≈ 1.37 µg/mL) | MIC (S. agalactiae ATCC 27591): 1.56 µM (≈ 2.75 µg/mL) | MIC (S. aureus ATCC 25923 [5]): 25 µM (≈ 44 µg/mL) | MIC [6]: 3.12 µM (≈ 5.49 µg/mL) | MIC (A. baumannii ATCC 19606): 3.12 µM (≈ 5.49 µg/mL) | MIC (P. aeruginosa ATCC 27853): 25 µM (≈ 44 µg/mL) | MIC (E. faecalis ATCC 29212): 12.5 µM (≈ 22 µg/mL) | MIC (E. coli ATCC 25922): 6.25 µM (≈ 11 µg/mL) | MIC (E. coli D21): 3.12 µM (≈ 5.49 µg/mL) | remaining at 4 h, 200 μM (in vitro): ~20%
SMILES: CC[C@H](C)[C@H](NC(=O)[C@H](CCCNC(=N)N)NC(=O)[C@H]1CCC(=O)NCCCC[C@H](NC(=O)[C@H](Cc2ccccc2)NC(=O)[C@H](Cc2c[nH]c3ccccc23)NC(=O)[C@@H]2CCCN2C(=O)[C@@H](NC(=O)[C@@H](N)Cc2ccc(NC(=N)N)cc2)C(C)C)C(=O)N[C@@H](CCCCN)C(=O)N[C@@H](Cc2ccccc2)C(=O)N[C@H](CC(C)C)C(=O)N1)C(=O)N[C@@H](CC(C)C)C(N)=O [Peptide 6, (p-guanidino)FVPWF[KKFle]RIL] (H-[Phe(4-guanidino)]VPWFKKF[dL][dE]RIL-NH2; lactam 6-10)
viability at 2 h, 3.12 µM [1]: 111% | viability at 2 h, 6.25 µM [1]: 119% | viability at 2 h, 12.5 µM [1]: 114% | viability at 2 h, 25 µM [1]: 100% | viability at 2 h, 50 µM [1]: 30% | viability at 24 h, 3.12 µM [1]: 104% | viability at 24 h, 6.25 µM [1]: 111% | viability at 24 h, 12.5 µM [1]: 111% | viability at 24 h, 25 µM [1]: 107% | viability at 24 h, 50 µM [1]: 33% | viability at 24 h, 100 µM [1]: 4% | CC50 [2]: 59.6 µM | Cell viability (%) ([2]; 50 µM): 81 ± 4% | CC50 at 24 h ([3]; CC50): > 50 µM | viability at 2 h, 3.12 µM ([3]; Cell viability (%)): 102% | viability at 2 h, 6.25 µM ([3]; Cell viability (%)): 101% | viability at 2 h, 12.5 µM ([3]; Cell viability (%)): 101% | viability at 2 h, 25 µM ([3]; Cell viability (%)): 101% | viability at 2 h, 100 µM ([3]; Cell viability (%)): 13% | viability at 24 h, 3.12 µM ([3]; Cell viability (%)): 100 ± 2% | viability at 24 h, 6.25 µM ([3]; Cell viability (%)): 93 ± 2% | viability at 24 h, 12.5 µM ([3]; Cell viability (%)): 86 ± 4% | viability at 24 h, 25 µM ([3]; Cell viability (%)): 86 ± 2% | viability at 24 h, 50 µM ([3]; Cell viability (%)): > 70% | viability at 24 h, 100 µM ([3]; Cell viability (%)): 2 ± 1% | membrane permeabilization, Sytox Green fluorescence (in words) (S. aureus ATCC 25923 [4]): lower effect | helicity (circular dichroism): 16%
